Molecular target: Aβ(1–42) oligomers (Homo sapiens, UniProt P05067)
Assay: Short time oligomer dissociation assay
Assay type: biochemical
Settings: 2h; 50 µM, 25 µM and 12.5 µM

Chain of Aβ(1–42) oligomers (P05067 672-713): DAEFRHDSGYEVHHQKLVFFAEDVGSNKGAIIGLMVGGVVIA

- Oligomer dissociation in short time assay: does result in disassembly
SMILES: O=C(O)c1cc(O)ccc1O [2,5-dihydroxybenzoic acid]
